Reference: patent publication US20150150810A1, “TABLETS FOR COMBINATION THERAPY” (Gilead Sciences, Inc., priority 2009, published 2015)

Assays:
[1] = Pharmacokinetic dose-ranging study of the compound of Formula II; assay type: in vivo; conditions: 100 mg dose
Procedure: A pharmacokinetic dose-ranging study involving the compound of Formula II was conducted. Doses for the compound of Formula II for the dose-ranging study included 50 mg, 100 mg and 200 mg.

[2] = Pharmacokinetic study of fixed-dose combinations of Formula I/Formula II/Formula III/Formula IV; assay type: in vivo; conditions: mean (CV %); for Cmax / AUC: in vivo
Procedure: A pharmacokinetic study involving two fixed-dose combinations of the compounds of Formula I/Formula II/Formula III/Formula IV was also conducted. Doses for the fixed-dose combination of the compounds of Formula I/Formula II/Formula III/Formula IV were 150 mg/100 mg/200 mg/300 mg (Dose A) and 150 mg/150 mg/200 mg/300 mg (Dose B) respectively. Pharmacokinetic data for the compound of Formula II from the study involving the two fixed dose combinations (Dose A and Dose B) is provided in the following table.

[3] = Chemical stability of Formula IV in tablet combinations; assay type: physicochemical
Description: Additionally, improper combinations of the compounds of Formula I, II, III, or IV in a bilayer tablet will also compromise the chemical stability of Formula IV. For example, Formula IV in the presence of silicon dioxide from the Formula II formulation will decompose Formula IV; and Formula IV in the in the presence of sodium lauryl sulphate from the Formula I formulation will decompose Formula IV.

[4] = in vivo, n = 11, arithmetic mean
[5] = Dose A: 150 mg/100 mg/200 mg/300 mg, n = 43
[6] = Dose B: 150 mg/150 mg/200 mg/300 mg, n = 42

Compound	CL/F ([1]; n = 11, arithmetic mean)	T1/2 ([1]; n = 11, median)	AUC [1, 4]	Cmax [1, 4]	Ctau [2, 5]	Ctau [2, 6]	Cmax [2, 5]	AUC ([2]; Dose A: Formula I/II/III/IV 150 mg/100 mg/200 mg/300 mg, n = 43)	Cmax [2, 6]	AUC ([2]; Dose B: Formula I/II/III/IV 150 mg/150 mg/200 mg/300 mg, n = 42)	chemical stability of Formula IV ([3]; Formula I, II, III and IV combined in a mixture as mono layer tablet)	chemical stability of Formula IV ([3]; in the presence of silicon dioxide from the Formula II formulation)	chemical stability of Formula IV ([3]; in the presence of sodium lauryl sulphate from the Formula I formulation)
CC(C)c1nc(CN(C)C(=O)N[C@@H](CCN2CCOCC2)C(=O)N[C@H](CC[C@H](Cc2ccccc2)NC(=O)OCc2cncs2)Cc2ccccc2)cs1 [Formula II]	33.2 L/h	3.12 h	3440 ng·h/mL	563 ng/mL	10.8 (83.6) ng/mL	23.3 (103) ng/mL	855 ng/mL	5150 ng·h/mL	1570 ng/mL	10400 ng·h/mL			
CC(C)OC(=O)OCOP(=O)(CO[C@H](C)Cn1cnc2c(N)ncnc21)OCOC(=O)OC(C)C.O=C(O)/C=C/C(=O)O [Formula IV, tenofovir disoproxil fumarate]											compromises the chemical stability	decompose	decompose
